This is an account of results in patent US8119674B2, “4-phenylimidazole-2-thione tyrosinase inhibitors and pharmaceutical/cosmetic applications thereof” (Galderma Research & Development, priority 2007, dated 2012).

Structures are written as SMILES.

This experiment addresses T1, tyrosinase (Mus musculus, UniProt P11344).
T1 construct: the supernatant obtained constitutes the cell lysate used as tyrosinase source in the enzymatic assay; endogenous in cells; host or cells: B16F1 murine melanoma cells, cultured with alpha-MSH; detergent/ultrasound lysate supernatant
T1 sequence (P11344 19-533): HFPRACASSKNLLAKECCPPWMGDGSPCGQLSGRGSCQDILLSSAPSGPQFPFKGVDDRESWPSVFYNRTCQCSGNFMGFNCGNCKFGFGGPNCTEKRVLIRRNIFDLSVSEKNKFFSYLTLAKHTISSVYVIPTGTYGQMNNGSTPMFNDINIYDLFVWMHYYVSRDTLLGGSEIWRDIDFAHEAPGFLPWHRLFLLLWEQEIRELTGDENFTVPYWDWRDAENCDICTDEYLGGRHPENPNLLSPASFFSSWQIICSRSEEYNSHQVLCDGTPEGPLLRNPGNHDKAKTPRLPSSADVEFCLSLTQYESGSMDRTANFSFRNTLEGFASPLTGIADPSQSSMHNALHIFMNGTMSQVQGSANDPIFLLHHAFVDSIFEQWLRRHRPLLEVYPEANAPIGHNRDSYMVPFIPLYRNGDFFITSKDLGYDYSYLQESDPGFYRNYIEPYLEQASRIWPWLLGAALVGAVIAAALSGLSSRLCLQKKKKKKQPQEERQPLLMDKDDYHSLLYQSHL
Nature of the experiment: Tyrosinase activity inhibition assay (B16F1 cell lysate, L-tyrosine substrate, MBTH, absorbance at 520 nm). It counts as biochemical. As to conditions: lysate of B16F1 cells (murine melanoma line) as tyrosinase source; 37° C., reading at 520 nm after 6 hours; read-out: Tyrosine hydroxylase/Dopa oxidase IC50. As to the method: The activity of the inhibitors is measured starting from a lysate of B16F1 cells (murine melanoma line). In the presence of the L-tyrosine substrate, the tyrosinase present in these cells catalyses the hydroxylation of L-tyrosine to give L-DOPA and then the oxidation of the L-DOPA to give dopaquinone. In the presence of MBTH (3-methyl-2-benzothiazolinone hydrazone), the dopaquinone is trapped so as to form a pink complex which absorbs at 520 nm.
The B16F1 cells are cultured in DMEM medium+10% foetal calf serum+10^−9 M α-MSH for 4 days at 37° C. under 7% CO2. They are treated with trypsin, washed with PBS, counted and pelleted. The pellet is taken up at 10^7 cells/ml in lysis buffer (10 mM sodium phosphate, pH 6.8-1% Igepal) and the suspension is treated with ultrasound for 10 seconds. After centrifugation for 30 minutes at 4000 rpm, the supernatant obtained constitutes the cell lysate used as tyrosinase source in the enzymatic assay.
The assays are carried out in duplicate in 384-well plates in a total volume of 50 μl. Each well contains:
40 μl of solution containing 1.25 mM L-tyrosine, 6.25 μM L-DOPA (cofactor) and 3.75 mM MBTH in buffer B (62.25 mM sodium phosphate, pH 6.8-2.5% dimethylformamide),
5 μl of inhibitor diluted in DMSO,
5 μl of cell lysate diluted to ½ in 50 mM Tris HCl buffer, pH 7.5.
The plate is incubated at 37° C. and a spectrophotometric reading is carried out at 520 nm after incubating for 6 hours. To avoid any possible absorption of the products, the system uses corrected absorbance (absorbance at time 6 h−absorbance at time zero).
The inhibitors are assayed in terms of dose-response so as to calculate an IC50 (dose which inhibits 50% of the enzymatic activity).
Several internal controls are added to each experiment:
control for 100% activity: the 5 μl of inhibitor are replaced with 5 μl of DMSO,
control for 50% activity: the 5 μl of inhibitor are replaced with 5 μl of phenylthiourea at 300 μM in DMSO,
control for 0% activity: the L-tyrosine substrate is replaced with buffer B.
As to `O=C(O)c1ccc(-c2c[nH]c(=S)[nH]2)cc1` [Compound 3, 4-(4-Carboxyphenyl)-1,3-dihydroimidazole-2-thione], the IC50 was found to be 200 nM.
The same measure for `OCc1ccc(-c2c[nH]c(=S)[nH]2)cc1` [Compound 7, 4-(4-(Hydroxymethyl)phenyl)-1,3-dihydroimidazole-2-thione]: 300 nM; for `FC(F)Oc1ccc(-c2c[nH]c(=S)[nH]2)cc1` [Compound 9, 4-(4-(Difluoromethoxy)phenyl)-1,3-dihydroimidazole-2-thione]: 400 nM.
As for `COc1cccc(-c2c[nH]c(=S)[nH]2)c1` [Compound 11, 4-(3-Methoxyphenyl)-1,3-dihydroimidazole-2-thione], the IC50 came out at 1400 nM.
